Laboratory results: article PMC11124341, “4-Hydroxybenzoic Acid-Based Hydrazide–Hydrazones as Potent Growth Inhibition Agents of Laccase-Producing Phytopathogenic Fungi That Are Useful in the Protection of Oilseed Crops” (Molecules, 2024)
Values after ≈ are worked out from the molar mass of the structure shown.

Assays:
[1] = tested on: Sclerotinia sclerotiorum strain FSc10; experiment: In vitro antifungal activity, mycelial growth inhibition on PDA medium; format: cell-based; conditions: for IC50: log-logistic model, 0–50 µg/mL range, read-out: IC50 against Sclerotinia sclerotiorum (Ss); for inhibition of growth at 50 µg/mL / fungal growth inhibition, S. sclerotiorum: screening at basal 50 µg/mL, PDA medium, mean ± SD of three determinations; for inhibition of growth at 50 µg/mL: read-out: fungal growth inhibition, S. sclerotiorum
Description: (§1) The cultures of Botrytis cinerea strain FBc05 and Sclerotinia sclerotiorum strain FSc10 were obtained from the collection of the Division of Plant Pathology and Mycology at the Department of Plant Protection of Wroclaw University of Environmental and Life Sciences (Poland). Cerrena unicolor (Bull.ex.Fr.) Murr, strain no. 139, originated from the culture collection of the Department of Biochemistry, University of Lublin (Poland). The stock cultures were maintained on potato dextrose agar at +4 °C and periodically transferred to a fresh medium.
(§2) Prior to the fungicidal activity assay of hydrazide–hydrazones 1–35, we considered ethanol and DMSO as potential dissolution media for tested compounds. […] Furthermore, a very important aspect of biological testing is the careful selection of organic solvents. These are typically used, e.g., methanol, ethanol, acetone, and DMSO, and may be highly toxic for microorganisms in even very low concentrations, such as 1% (v/v). Ethanol and DMSO with a final concentration between 0.1 and 1.0% (v/v) in a PDA medium were used and applied to evaluate the inhibition growth of B. cinerea, S. sclerotiorum, and C. unicolor (see Supplementary Materials). The following procedure was applied to the microorganism testing. The assays of fungi inhibition growth were performed at a basal concentration of 50 µg/mL for all compounds, and detailed experiments were extended for testing between 0 and 50 µg/mL (0, 6.25, 12.5, 25.0, and 50.0 µg/mL) for selected compounds. The tests were carried out on Petri dishes (diameter 60 mm) with PDA medium containing appropriate compound, co-solvent control, and hydrazide–hydrazone dissolved in co-solvent assay. A piece of mycelium with a 5 mm edge taken from the outer edge of the growing fungi on the PDA plate with co-solvent was transferred to a central part of the PDA plate with the examined compound. The plates thus inoculated were incubated at 22 °C in the dark for a time when the control plate containing only the co-solvent was covered entirely with the tested microorganism. For B. cinerea and S. sclerotiorum, the test took 3 days, and for C. unicolor, it took 7 days. Each assay was performed at least in triplicate. […] Model parameters c and e were estimated using the nonlinear least-squares method. Parameters d and b (with two exceptions) were fixed and assumed to be equal. Based on estimated parameters, the values of IC50 were determined. […] The IC50 values were calculated only in cases when the model predicted a decrease in growth rate by more than 50%.
(§3) In vitro antifungal activity
(§4) Prior to the fungicidal activity assay of hydrazide-hydrazones 1–35, we considered ethanol (EtOH) and DMSO as potential dissolution media for tested compounds.
(§5) EtOH and DMSO with a final concentration between 0.1–1.0% (v/v) in a PDA medium were applied to evaluate the inhibition growth of B. cinerea, S. sclerotiorum, and C. unicolor (see Table S3). The following procedure was applied to the microorganism testing with the hydrazide-hydrazones. The assays of fungi inhibition growth were performed at a basal concentration of 50 µg/mL for all compounds, and detailed experiments were extended for testing selected molecules 18, 19, 27, […]
(§6) Table S2. In vitro antifungal activity for DMSO and ethanol co-solvents.

[2] = tested on: Botrytis cinerea strain FBc05; experiment: as above; format: cell-based; conditions: for IC50: log-logistic model, 0–50 µg/mL range, read-out: IC50 against Botrytis cinerea (Bc); for inhibition of growth at 50 µg/mL / fungal growth inhibition, B. cinerea: screening at basal 50 µg/mL, PDA medium, mean ± SD of three determinations; for inhibition of growth at 50 µg/mL: read-out: fungal growth inhibition, B. cinerea
Description: as §1, §2, §3, §4, §5, §6

[3] = tested on: Cerrena unicolor strain no. 139; experiment: as above; format: cell-based; conditions: for inhibition of growth at 50 µg/mL / fungal growth inhibition, C. unicolor: screening at basal 50 µg/mL, PDA medium, mean ± SD of three determinations; for inhibition of growth at 50 µg/mL: read-out: fungal growth inhibition, C. unicolor
Description: as §1, §2, §3, §4, §5, §6

[4] = target: laccase from Trametes versicolor; conditions: read-out: Laccase inhibition, Ki; cited from earlier work
[5] = Sclerotinia sclerotiorum, FSC10

Compound	inhibition of growth at 50 µg/mL ([2]; Botrytis cinerea, FBC05) [%]	inhibition of growth at 50 µg/mL ([3]; Cerrena unicolor, NO.139) [%]	fungal growth inhibition, S. sclerotiorum [1]	Ki [4] [µM]	fungal growth inhibition, B. cinerea [2]	other results
CCO [EtOH, ethanol]	–	–	–	–	–	IC50 of co-solvent, S. sclerotiorum ([1]; co-solvent at 0.1–1.0% (v/v) in PDA medium): n.o.
CC1(C(=O)Nc2ccc(O)c(Cl)c2Cl)CCCCC1 [Fenhexamid, reference compound]	99.9 ± 0.4	39.9 ± 0.7	–	–	–	inhibition at 6.25 µg/mL ([2]; Botrytis cinerea, FBC05, fungicidal profile, 6.25 µg/mL, read-out: B. cinerea inhibition): 98.5%; inhibition at 50 µg/mL ([2]; Botrytis cinerea, FBC05, fungicidal profile, 50 µg/mL, read-out: B. cinerea inhibition): 100%; IC50 ([2]; Botrytis cinerea, FBC05): 0.1 µg/mL (≈ 0.331 µM); inhibition at 50 µg/mL ([3]; Cerrena unicolor, NO.139, fungicidal profile, 50 µg/mL, read-out: C. unicolor inhibition): 32.1%; inhibition at 6.25 µg/mL ([1]; Sclerotinia sclerotiorum, FSC10, fungicidal profile, 6.25 µg/mL, read-out: S. sclerotiorum inhibition): 95.6%; inhibition at 12.5 µg/mL ([1]; Sclerotinia sclerotiorum, FSC10, fungicidal profile, 12.5 µg/mL, read-out: S. sclerotiorum inhibition): 96.3%; IC50 [1, 5]: 4.2 µg/mL (≈ 13.9 µM); inhibition of growth at 50 µg/mL [1, 5]: 100 ± 0.3%
O=C(N/N=C/c1ccccc1)c1ccc(O)cc1 [compound 1]	2.6 ± 0.2	10.6 ± 1.1	n.o.	1470	–	–
O=C(N/N=C/CCc1ccccc1)c1ccc(O)cc1 [compound 2]	–	18 ± 3.2	n.o.	1920	n.o.	–
Cc1ccc(/C=N/NC(=O)c2ccc(O)cc2)cc1 [compound 3]	3.3 ± 1.1	–	n.o.	251	–	fungal growth inhibition, C. unicolor [3]: n.o.
CC(C)c1ccc(/C=N/NC(=O)c2ccc(O)cc2)cc1 [compound 4]	12 ± 2.6	20.9 ± 2.8	n.o.	–	–	–
O=C(N/N=C/c1ccccc1S(=O)(=O)[O-])c1ccc(O)cc1.[Na+] [compound 5]	–	23.6 ± 4.2	n.o.	≥ 2400	n.o.	–
O=C(N/N=C/c1ccccc1O)c1ccc(O)cc1 [compound 6]	4.7 ± 1.1	14.7 ± 0.3	n.o.	674	–	–
O=C(N/N=C/c1cccc(O)c1)c1ccc(O)cc1 [compound 7]	3.7 ± 1.8	12.6 ± 4.1	n.o.	2400	–	–
O=C(N/N=C/c1ccc(O)cc1)c1ccc(O)cc1 [compound 8]	4.2 ± 1.5	14.3 ± 1.7	n.o.	638	–	–
COc1ccccc1/C=N/NC(=O)c1ccc(O)cc1 [compound 9]	3.3 ± 1.2	22.3 ± 2.6	n.o.	1060	–	–
COc1cccc(/C=N/NC(=O)c2ccc(O)cc2)c1 [compound 10]	3.9 ± 2.4	–	n.o.	416	–	fungal growth inhibition, C. unicolor [3]: n.o.
COc1ccc(/C=N/NC(=O)c2ccc(O)cc2)cc1 [compound 11]	4.4 ± 0.9	11.7 ± 3.5	n.o.	≥ 2400	–	–
O=C(N/N=C/c1ccc([N+](=O)[O-])o1)c1ccc(O)cc1 [compound 12, Nifuroxazide, reference compound]	3.3 ± 1.2	19.5 ± 2.8	no activity and n.o.	–	no activity	–
O=C(N/N=C/c1cc(Br)ccc1O)c1ccc(O)cc1 [compound 14]	–	56.8 ± 8.4	n.o.	≥ 1000	n.o.	–
COc1cccc(O)c1/C=N/NC(=O)c1ccc(O)cc1 [compound 15]	–	43.1 ± 3	n.o.	≥ 1000	n.o.	–
COc1cccc(OC)c1/C=N/NC(=O)c1ccc(O)cc1 [compound 16]	–	32.1 ± 3.1	n.o.	≥ 1000	n.o.	–
COc1ccc(C(=O)N/N=C/c2cccc(-c3ccccc3)c2O)cc1 [compound 20]	3.3 ± 1.2	35.4 ± 2.4	n.o.	≥ 1000	–	–
O=C(N/N=C/c1ccc(O)cc1O)c1ccc(O)cc1 [compound 21]	–	30.1 ± 4.3	n.o.	939	n.o.	–
Cc1cc(CO)cc(/C=N/NC(=O)c2ccc(O)cc2)c1O [compound 24]	–	42 ± 2.1	n.o.	≥ 1000	n.o.	–
Cc1ccc(C(C)C)c(O)c1/C=N/NC(=O)c1ccc(O)cc1 [compound 28]	50.8 ± 2.6	38.2 ± 2.3	–	> 1000	–	IC50 ([2]; Botrytis cinerea, FBC05): 52.7 µg/mL (≈ 169 µM); IC50 [1, 5]: 9.8 µg/mL (≈ 31.4 µM); inhibition of growth at 50 µg/mL [1, 5]: 91.4 ± 2.2%
COc1cc(O)c(/C=N/NC(=O)c2ccc(O)cc2)c(OC)c1 [compound 29]	8.1 ± 0.6	9.1 ± 1.9	n.o.	≥ 1000	–	–
COc1ccc(C(=O)N/N=C/c2cc(C)cc(C(C)(C)C)c2O)cc1 [compound 31]	2.1 ± 0.9	13.8 ± 3.9	n.o.	25.8	–	–
Cc1cc(/C=N/NC(=O)c2ccccc2)c(O)c(C(C)(C)C)c1 [compound 33]	3.9 ± 0.6	36.6 ± 1.2	n.o.	82	–	–
Cc1cc(/C=N/NC(=O)c2cccnc2)c(O)c(C(C)(C)C)c1 [compound 34]	7.5 ± 0.6	29.6 ± 2.7	n.o.	–	–	–
CC(=O)NN=Cc1cc(C)cc(C(C)(C)C)c1O [compound 35]	–	45.7 ± 0.5	n.o.	≥ 1000	n.o.	–
